Test results published in ChEMBL document CHEMBL1201862, “PubChem BioAssay data set” (2004).
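Values below derive from 48-hour exposures of cells grown in 96-well plates, with endpoints linearly interpolated between the two concentrations bracketing the appropriate inhibition level. GI50 = concentration required for 50% inhibition of growth.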 Activity calls are given as the source filed them. Cut-off read from the data, not from the text of the source: active = GI50 up to about 1.1 µM and inactive = higher.

Columns and labels:
Assay in all cases: DTP human tumour cell line panel, 48 h
SF-539 = test system: SF-539
OVCAR-4 = test system: OVCAR-4
RPMI-8226 = test system: RPMI-8226
U-251 = test system: U-251
SN12C = test system: SN12C
UACC-62 = test system: UACC-62
NCI-H522 = test system: NCI-H522
M14 = test system: M14
SK-MEL-28 = test system: SK-MEL-28
MDA-MB-231 = test system: MDA-MB-231
NCI-H23 = test system: NCI-H23
DU-145 = test system: DU-145
RXF 393 = test system: RXF 393
786-0 = test system: 786-0
IGROV-1 = test system: IGROV-1
HOP-92 = test system: HOP-92
HCC 2998 = test system: HCC 2998
HT-29 = test system: HT-29
KM12 = test system: KM12
EKVX = test system: EKVX

Row | Structure (SMILES) | GI50 (SF-539) | GI50 (OVCAR-4) | GI50 (RPMI-8226) | GI50 (U-251) | GI50 (SN12C) | GI50 (UACC-62) | GI50 (NCI-H522) | GI50 (M14) | GI50 (SK-MEL-28) | GI50 (MDA-MB-231) | GI50 (NCI-H23) | GI50 (DU-145) | GI50 (RXF 393) | GI50 (786-0) | GI50 (IGROV-1) | GI50 (HOP-92) | GI50 (HCC 2998) | GI50 (HT-29) | GI50 (KM12) | GI50 (EKVX)
1 | C[C@]12CC[C@H](O)C[C@H]1CC[C@@H]1[C@@H]2CC[C@]2(C)[C@@H](C3=CC(=O)OC3)[C@@H](O)C[C@]12O [GITOXIGENIN] | 0.849 µM (active) | 1.4 µM (inactive) | 2.77 µM (inactive) | 2.22 µM (inactive) | 0.566 µM (active) | 2.62 µM (inactive) | 0.435 µM (active) | 2.45 µM (inactive) | 5.13 µM (inactive) | 4.93 µM (inactive) | 0.682 µM (active) | 1.04 µM (active) | 1.15 µM (inactive) | 0.995 µM (active) | 2.86 µM (inactive) | 9.66 µM (inactive) | 2.47 µM (inactive) | 3.27 µM (inactive) | 4.85 µM (inactive) | 0.785 µM (active)
2 | Nc1ccc(S(=O)(=O)Nc2cnc3ccccc3n2)cc1 [SULFAQUINOXALINE] | > 100 µM (inactive) | > 100 µM (inactive) | > 100 µM (inactive) | > 100 µM (inactive) | > 100 µM (inactive) | > 100 µM (inactive) | > 100 µM (inactive) | > 100 µM (inactive) | > 100 µM (inactive) | > 100 µM (inactive) | > 100 µM (inactive) | > 100 µM (inactive) | > 100 µM (inactive) | > 100 µM (inactive) | > 96.6 µM (inactive) | > 100 µM (inactive) | > 100 µM (inactive) | > 100 µM (inactive) | > 100 µM (inactive) | > 100 µM (inactive)
